These results are taken from publication PMC7146381, “Modulation of Adhesion Process, E-Selectin and VEGF Production by Anthocyanins and Their Metabolites in an In Vitro Model of Atherosclerosis” (Nutrients, 2020).

In data set [1] the test system is adhesion of monocytes to endothelial cells. Also on record: method as in PMID 26873533. Particulars: TNF-α 4 h, monocyte co-incubation 15 min; cited from earlier work.
Data set [2] is described as follows: Cytotoxicity, Trypan blue assay on HUVECs. It counts as cell-based, Human. Particulars: human. As to the method: (§1) The cytotoxicity of the compounds was tested by Trypan blue and (3-(4,5-dimethylthiazol-2-yl)-2, 5-diphenyltetrazolium bromide (MTT) assay on HUVECs, according to the manufacturer’s instructions. Triton X-100 was used as positive control. Two independent experiments were performed in which each compound and concentration was tested in quadruplicate.

For another data set, the system named is soluble VCAM-1. In words: ELISA quantification of soluble VCAM-1 in cell supernatant. Particulars: with TNF-α 100 ng mL^−1, mean ± SEM. The class given is cell-based, Human. The method, then: (§2) When the confluency reached about 80%, HUVECs were removed using trypsin ([…]) and seeded on a 0.1% gelatin pre-coated 96-well black plate at the concentration of 2 × 10^4 cells/well at 37 °C and 5% CO2. After 24 h incubation, THP-1 (2 × 10^6) cells were labelled with CellTracker^TM Green CMFDA (1 µM) in 1 mL serum-free RPMI medium (containing 1% HEPES, 1% sodium pyruvate and 0.1% gentamicin) for 30 min. Successively, cells were washed twice, re-suspended in HUVEC medium at a final concentration of 2 × 10^5 cells mL^−1 and added to HUVECs. The adhesion process was induced for 24 h with 100 ng mL^−1 of TNF-α. Then, 200 μL of new medium containing the single compounds (0.02 µM, 0.2 µM, 2 µM and 20 µM for Peo and Pet-3-glc and 0.05 µM, 0.5 µM, 5 µM and 50 µM for VA and MetGA) was added and the cells were further incubated for 24 h. Medium from each well was collected and stored at −80 °C until ELISA analysis. Cells were rinsed twice with 200 µL of Hanks balanced salt solution and the fluorescence (excitation: 485 nm, emission: 538 nm) associated with the number of labeled THP-1 cells attached to the HUVECs was measured by a spectrophotometer (mod. F200 Infinite, TECAN Milan, Italy). Each compound and concentration were tested in quintuplicate in three independent experiments.
(§3) At the end of the experiment, the recovered cell culture supernatants were used to quantify the concentrations of soluble VCAM-1 (Cat# EK0537, BosterBio), E-selectin (Cat# MBS355367, MyBioSource) and VEGF (Cat# V3-200-820-VEF, Vinci-Biochem). The analysis was performed using ELISA kits according to the manufacturer’s instruction. The analyses were conducted in quadruplicate and the results derived from three independent experiments.

The test system of the next data set is VEGF. Put plainly: ELISA quantification of VEGF in cell supernatant. The class given is cell-based, Human. Particulars: for levels of VEGF in cell supernatant: with TNF-α 100 ng mL^−1, mean ± SEM. The method, then: as §2, §3
A general note: An ELISA detects its analyte on a solid surface through an enzyme-linked reagent.

A short description of data set [3]: Cytotoxicity, MTT assay on HUVECs. The class given is cell-based. Particulars: human, with TNF-α stimulus, mean ± SEM, read-out: Percentage of cell viability, MTT assay. The method, then:
as §1
In general terms: Formazan colour is commonly taken as a measure of viable cells.

Another data set has as its system THP-1 adhesion to HUVECs. Put plainly: THP-1 (monocytes) adhesion to TNF-α-activated HUVECs, fluorescence of labelled THP-1. It counts as cell-based, Human. Particulars: 24 h after TNF-α 100 ng mL^−1. The method, then: as §2
A further data set concerns E-selectin. Put plainly: ELISA quantification of E-selectin in cell supernatant. It counts as cell-based, Human. Particulars: for levels of E-selectin in cell supernatant: with TNF-α 100 ng mL^−1, mean ± SEM; for change of E-selectin levels compared to the negative control (without TNF-α): p < 0.05. The method, then:
as §2, §3

Where [4] appears, read: 0.02 µM, controls 59-64 (no TNF-α), 307-316 (TNF-α).
Where [5] appears, read: 0.02 µM, controls 120-121 (no TNF-α), 170-172 (TNF-α).
[6] abbreviates: 0.02 µM, controls 160-164 (no TNF-α), 316-317 (TNF-α).

The structures appear in SMILES notation. Marks after values point to notes of the source that are not given here.

For `Oc1cc(O)c2cc(O[C@@H]3OC[C@H](O)[C@H](O)[C@H]3O)c(-c3ccc(O)c(O)c3)[o+]c2c1` [arabinoside], in data set [1], the “concentrations with significant reduction in the adhesion of monocytes to endothelial cells” value is 0.1 to 2 µM.

Turning to `OC[C@H]1O[C@@H](Oc2cc3c(O)cc(O)cc3[o+]c2-c2ccc(O)c(O)c2)[C@H](O)[C@@H](O)[C@H]1O` [galactoside], the “concentrations with significant reduction in the adhesion of monocytes to endothelial cells” value in data set [1] was 0.1 to 2 µM.

For `O=C(O)c1ccc(O)c(O)c1` [protocatechuic acid], the “concentrations with significant reduction in the adhesion of monocytes to endothelial cells” value in data set [1] is reported as “all concentration tested”.

`OC[C@H]1O[C@@H](Oc2cc3c(O)cc(O)cc3[o+]c2-c2cc(O)c(O)c(O)c2)[C@H](O)[C@@H](O)[C@@H]1O` [delphinidin-3-glucoside]: the “concentrations with significant reduction in the adhesion of monocytes to endothelial cells” value in data set [1] is given as “all the concentrations tested”.

By viability is commonly meant a read-out of living cells in per cent, often relative to untreated cells. As to `COc1cc(-c2[o+]c3cc(O)cc(O)c3cc2O[C@@H]2O[C@H](CO)[C@@H](O)[C@H](O)[C@H]2O)cc(O)c1O` [Pet-3-glc, petunidin-3-glucoside], in data set [2], the viability at 0.02 µM turned out to be 110%. The viability at 0.2 µM in data set [2] stood at 97 ± 1%. Also, the viability at 2 µM in data set [2] was found to be 97.7 ± 0.33%. Moreover, the viability at 20 µM in data set [2] worked out at 100%; in data set [3], 94.4 ± 0.45%. Further, the “levels of sVCAM-1 in cell supernatant” value with soluble VCAM-1 (setting [4]) is 311 ± 13 ^b; in the data set with soluble VCAM-1 (0.2 µM), 297 ± 15 ^b; with soluble VCAM-1 (2 µM), 300 ± 14 ^b; with soluble VCAM-1 (20 µM), 83 ± 10 ^c. In addition, the “levels of VEGF in cell supernatant” value in the data set on VEGF (setting [5]) was 129 ± 10 ^a; in the data set with VEGF (0.2 µM), 123 ± 7.4 ^a; in the data set with VEGF (2 µM), 123 ± 2.9 ^a; in the data set on VEGF (20 µM), 117 ± 9.9 ^a. For the same molecule, the “change of VEGF concentrations vs TNF-α” value is reported as −24% in the data set with VEGF (0.02 μM, p < 0.001); −27% in the data set with VEGF (0.2 μM, p < 0.001); −28% in the data set on VEGF (2 μM, p < 0.001); −30% with VEGF (20 μM, p < 0.001). The “change of THP-1 adhesion to HUVECs compared to the TNF-α treatment” value (shortened to “change of THP-1 adhesion to HUVECs”) with THP-1 adhesion to HUVECs (0.02 µM, p < 0.0001) is given as −37%; in the data set on THP-1 adhesion to HUVECs (0.2 µM, p < 0.0001) it was −33%; in the data set on THP-1 adhesion to HUVECs (2 µM, p < 0.0001) it was −33%; in the data set on THP-1 adhesion to HUVECs (20 μM, p < 0.0001), −45%. In addition, the “levels of E-selectin in cell supernatant” value is on record as 115 ± 7.5 ^c with E-selectin (setting [6]), 123 ± 11.8 ^a,c in the data set on E-selectin (0.2 µM), 104 ± 6.3 ^c in the data set with E-selectin (2 µM) and 88 ± 12.1 ^c in the data set on E-selectin (20 µM). For the same molecule, the “change of E-selectin production vs TNF-α control” value was −64% in the data set on E-selectin (0.02 μM, p < 0.001); −60% with E-selectin (0.2 μM, p < 0.001); −67% in the data set on E-selectin (2 μM, p < 0.001); −72% in the data set with E-selectin (20 μM, p < 0.001). The “change of E-selectin levels compared to the negative control (without TNF-α)” value in the data set with E-selectin (0.02 µM) is −28%; in the data set with E-selectin (2 μM) it was −36%; in the data set with E-selectin (20 µM) it was −45%.

Consider `COc1cc(C(=O)O)ccc1O` [VA, vanillic acid], for which, in data set [1], the “concentrations with significant reduction in the adhesion of monocytes to endothelial cells” value is 0.2 μM and 2 µM only. The viability at 0.05 µM in data set [2] is 100%. Besides, the viability at 0.5 µM in data set [2] was 99.7 ± 0.33%. In data set [2], the viability at 5 µM turned out to be 99.7 ± 0.66%. The viability at 50 µM in data set [2] came out at 99.3 ± 0.67%; in data set [3] (50 µM), 99.7 ± 0.32%. The “change of VEGF concentrations vs TNF-α” value in the data set with VEGF (0.05 μM) is reported as −12%; in the data set with VEGF (0.5 μM), −17%; with VEGF (5 μM), −13%; in the data set with VEGF (50 μM), −21%. Also, the “levels of VEGF in cell supernatant” value in the data set on VEGF (0.05 µM) is given as 149 ± 3.0 ^c; with VEGF (0.5 µM), 141 ± 8.3 ^c; in the data set with VEGF (5 µM), 147 ± 4.9 ^c; in the data set on VEGF (50 µM), 135 ± 5.7 ^c. Also, the “change of THP-1 adhesion to HUVECs” value with THP-1 adhesion to HUVECs (50 μM, p < 0.001) is −21%. Besides, the “levels of E-selectin in cell supernatant” value with E-selectin (0.05 µM) is on record as 312 ± 14.1 ^b; with E-selectin (0.5 µM) it was 312 ± 11.2 ^b; in the data set on E-selectin (5 µM), 305 ± 7.4 ^b; in the data set on E-selectin (50 µM) it was 95 ± 13.2 ^c. For the same molecule, the “change of E-selectin levels with respect to the positive TNF-α control” value in the data set with E-selectin (50 μM, p < 0.001) is given as −70%.

For `OC[C@H]1O[C@@H](Oc2cc3c(O)cc(O)cc3[o+]c2-c2ccc(O)c(O)c2)[C@H](O)[C@@H](O)[C@@H]1O` [cyanidin-3-glucoside], in data set [1], the “concentrations with significant reduction in the adhesion of monocytes to endothelial cells” value was 0.1 to 2 µM.

`O=C(O)CNC(=O)c1ccccc1` [hippuric acids, hippuric acid]: in data set [1], the “concentrations with significant reduction in the adhesion of monocytes to endothelial cells” value is “only effective at 1 μM and 2 µM”.

On to `COc1cc(/C=C/C(=O)O)ccc1O` [ferulic, ferulic acid], for which the “concentrations with significant reduction in the adhesion of monocytes to endothelial cells” value in data set [1] is “only effective at 1 μM and 2 µM”.

`COc1cc(-c2[o+]c3cc(O)cc(O)c3cc2O[C@@H]2O[C@H](CO)[C@@H](O)[C@H](O)[C@H]2O)ccc1O` [Peo-3-glc, peonidin-3-glucoside]: in data set [1], the “concentrations with significant reduction in the adhesion of monocytes to endothelial cells” value is recorded as “effective only at the lowest concentration”. The viability at 0.02 µM in data set [2] was 99.7 ± 0.33%. Moreover, the viability at 0.2 µM in data set [2] came out at 100%. Moreover, the viability at 2 µM in data set [2] is 99.3 ± 0.67%. The viability at 20 µM in data set [2] came out at 99.3 ± 0.33%; in data set [3] it was 98.5 ± 0.12%. The “levels of sVCAM-1 in cell supernatant” value is reported as 107 ± 15 ^c in the data set on soluble VCAM-1 (setting [4]), 104 ± 16 ^c in the data set on soluble VCAM-1 (0.2 µM), 186 ± 12 ^c in the data set on soluble VCAM-1 (2 µM) and 149 ± 24 ^c in the data set with soluble VCAM-1 (20 µM). For the same molecule, the “levels of VEGF in cell supernatant” value with VEGF (setting [5]) was 120 ± 6.9 ^a; in the data set on VEGF (0.2 µM) it was 123 ± 1.7 ^a; in the data set with VEGF (2 µM) it was 123 ± 6.0 ^a; in the data set with VEGF (20 µM) it was 119 ± 2.6 ^a. In addition, the “change of VEGF concentrations vs TNF-α” value in the data set with VEGF (0.02 μM, p < 0.001) was −27%; in the data set with VEGF (0.2 μM, p < 0.001), −28%; in the data set on VEGF (2 μM, p < 0.001) it was −30%; with VEGF (20 μM, p < 0.001), −30%. For the same molecule, the “change of THP-1 adhesion to HUVECs” value is given as −37% with THP-1 adhesion to HUVECs (0.02 µM, p < 0.0001); −24% with THP-1 adhesion to HUVECs (0.2 µM, p < 0.0001); −30% with THP-1 adhesion to HUVECs (2 µM, p < 0.0001); −47% in the data set on THP-1 adhesion to HUVECs (20 μM, p < 0.0001). The “levels of E-selectin in cell supernatant” value in the data set with E-selectin (setting [6]) is listed as 143 ± 4.3 ^a; in the data set with E-selectin (0.2 µM) it was 108 ± 5.3 ^c; in the data set on E-selectin (2 µM) it was 109 ± 7.2 ^c; in the data set with E-selectin (20 µM), 76 ± 8.4 ^c. The “change of E-selectin production vs TNF-α control” value in the data set with E-selectin (0.02 μM, p < 0.001) is recorded as −55%; with E-selectin (0.2 μM, p < 0.001), −66%; with E-selectin (2 μM, p < 0.001), −65%; in the data set on E-selectin (20 μM, p < 0.001), −76%. For the same molecule, the “change of E-selectin levels compared to the negative control (without TNF-α)” value in the data set on E-selectin (0.2 μM) is given as −32%; in the data set on E-selectin (2 μM) it was −31%; in the data set with E-selectin (20 µM) it was −53%.
